# Assay results published in US8367864B2, “Dimeric double metal salts of (−)-hydroxycitric acid, methods of making and uses of same” (Glykon Technologies Group, LLC, priority 2006, dated 2013).
# Legend:
# [1] = tested on: human hepatoma cell line Hep G2; conditions: cited from earlier work
# [2] = conditions that elevate de novo lipogenesis; cited from earlier work
# [3] = in vivo; cited from earlier work
# [4] = chronic administration; resting and exercising conditions; cited from earlier work
# [5] = tested on: middle-aged rats fed a 30% fat diet; conditions: cited from earlier work
# [6] = Alcohol solubility (1% wt in 50% v/v ethanol); format: physicochemical; conditions: tested at 1% weight in 50% (v/v) ethanol solution
# [7] = kinetic study
# From the text: This structure is like the soluble double metal HCA salts disclosed by Balasubramanyam et al., (U.S. Pat. No. 6,160,172, issued Dec. 12, 2000; U.S. Pat. No. 6,395,296, issued May 28, 2002).
# [8] = physchem
compound,measurement,setting,value
"O=C(O)CC(O)(C(=O)O)C(O)C(=O)O (single isomer, unassigned; (-)) [HCA, (−)-hydroxycitric acid]","incorporation of [1,5-14C]citrate into fatty acids and cholesterol","[1]; 2.5 h and 18 h incubations, 0.5 mM or higher",strongly inhibited
same,"Cholesterol biosynthesis, of the control value",[1]; incorporation of tritium from tritiated water,27%
same,energy expenditure,[2],increased
same,fat synthesis,[2],reduced
same,appetite and satiety,[3],promote appetite suppression and satiety
same,respiratory exchange ratio,[4],significantly lower
O=C([O-])CC(O)(C(=O)[O-])C(O)C(=O)[O-].[K+].[K+].[K+] (centres unmarked) [potassium HCA],fat as a percentage of body weight,[5],reducing
same,protein as a percentage of body weight,[5],increased
O=C(O)CC(O)(C(=O)O)C(O)C(=O)O (centres unmarked) [K/Mg-HCA monomer],Alcohol Solubility (50% v/v alcohol; 1% wt test),[6],40%
same,absorption compared to the dimer,[7],less-absorbed
same,solubility,[8],250 mg/mL
